Test results published in patent US12171756B2, “NLRP3 modulators” (Innate Tumor Immunity, Inc., priority 2017, dated 2024).

Experiments:
[1] = tested on: IL-1β production in PMA-differentiated THP-1 cells; experiment: Measurement of IL-1β production in PMA-differentiated THP-1 cells (ELISA, 4 hours); assay type: cell-based, human; conditions: Homo sapiens, THP-1, human IL-1β production, assayed using one or more of the described procedures, read-out: NLRP3 hIL1B IC50
Summary of the method: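 THP-1 cells differentiated with PMA (10 μg/ml, 24 h), replated at 1×10^6 cells/ml in RPMI with 2% FBS and exposed to compounds (e.g. 0.1–100 μM, 1% DMSO final) for 4 hours. IL-1β in cell-free supernatant quantified by ELISA against vehicle control.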

[2] = molecular target: T1, human TLR7 (Homo sapiens, UniProt Q9NYK1); experiment: In vitro human TLR7 binding reporter assay (HEK-Blue, NF-kB/AP1-inducible SEAP); assay type: cell-based; conditions: HEK-Blue human TLR7 SEAP reporter cells; activity range classes; read-out: TLR7 Agonist EC50
T1 construct: host or cells: human HEK-Blue cells (HEK293-derived) co-expressing TLR7 and an NF-kB/AP1-inducible SEAP reporter
T1 sequence (Q9NYK1 27-1049): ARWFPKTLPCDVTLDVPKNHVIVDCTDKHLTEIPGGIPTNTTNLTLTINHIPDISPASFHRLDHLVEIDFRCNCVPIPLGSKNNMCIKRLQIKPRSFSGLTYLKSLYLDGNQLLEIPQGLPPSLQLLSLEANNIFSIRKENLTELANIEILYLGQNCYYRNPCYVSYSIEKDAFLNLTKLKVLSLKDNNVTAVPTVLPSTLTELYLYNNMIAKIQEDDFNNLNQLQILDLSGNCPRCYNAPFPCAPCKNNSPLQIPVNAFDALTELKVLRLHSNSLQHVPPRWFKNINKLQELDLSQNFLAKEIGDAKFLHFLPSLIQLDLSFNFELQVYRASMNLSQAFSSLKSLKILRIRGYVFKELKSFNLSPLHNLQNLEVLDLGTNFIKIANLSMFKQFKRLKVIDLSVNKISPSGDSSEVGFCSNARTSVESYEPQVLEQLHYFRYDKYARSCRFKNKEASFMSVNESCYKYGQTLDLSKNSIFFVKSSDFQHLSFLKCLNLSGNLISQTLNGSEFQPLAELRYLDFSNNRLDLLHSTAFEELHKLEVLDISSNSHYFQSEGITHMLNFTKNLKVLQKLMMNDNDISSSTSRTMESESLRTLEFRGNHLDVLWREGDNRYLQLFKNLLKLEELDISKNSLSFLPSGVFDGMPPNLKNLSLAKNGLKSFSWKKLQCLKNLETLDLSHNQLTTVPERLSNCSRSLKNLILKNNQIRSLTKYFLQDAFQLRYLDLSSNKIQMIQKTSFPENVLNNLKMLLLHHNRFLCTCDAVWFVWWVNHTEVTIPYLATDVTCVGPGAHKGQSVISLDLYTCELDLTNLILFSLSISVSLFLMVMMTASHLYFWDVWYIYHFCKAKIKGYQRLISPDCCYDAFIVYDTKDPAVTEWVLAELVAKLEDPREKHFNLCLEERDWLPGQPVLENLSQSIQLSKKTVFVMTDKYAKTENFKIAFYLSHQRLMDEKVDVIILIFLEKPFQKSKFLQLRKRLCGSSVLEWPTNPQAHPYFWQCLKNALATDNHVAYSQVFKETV
Summary of the method: (§1)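 EC50s come from NF-kB/AP1-driven SEAP secretion in HEK-Blue cells expressing TLR7 or TLR8, measured with Quanti-Blue after an 18 h compound incubation. Maximal response is defined by a 50 μM reference standard.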

[3] = molecular target: T2, human TLR8 (Homo sapiens, UniProt Q9NR97); experiment: In vitro human TLR8 binding reporter assay (HEK-Blue, NF-kB/AP1-inducible SEAP); assay type: cell-based; conditions: HEK-Blue human TLR8 SEAP reporter cells; activity range classes; read-out: TLR8 Agonist EC50
T2 construct: host or cells: human HEK-Blue cells (HEK293-derived) co-expressing TLR8 and an NF-kB/AP1-inducible SEAP reporter
T2 sequence (Q9NR97 27-1041): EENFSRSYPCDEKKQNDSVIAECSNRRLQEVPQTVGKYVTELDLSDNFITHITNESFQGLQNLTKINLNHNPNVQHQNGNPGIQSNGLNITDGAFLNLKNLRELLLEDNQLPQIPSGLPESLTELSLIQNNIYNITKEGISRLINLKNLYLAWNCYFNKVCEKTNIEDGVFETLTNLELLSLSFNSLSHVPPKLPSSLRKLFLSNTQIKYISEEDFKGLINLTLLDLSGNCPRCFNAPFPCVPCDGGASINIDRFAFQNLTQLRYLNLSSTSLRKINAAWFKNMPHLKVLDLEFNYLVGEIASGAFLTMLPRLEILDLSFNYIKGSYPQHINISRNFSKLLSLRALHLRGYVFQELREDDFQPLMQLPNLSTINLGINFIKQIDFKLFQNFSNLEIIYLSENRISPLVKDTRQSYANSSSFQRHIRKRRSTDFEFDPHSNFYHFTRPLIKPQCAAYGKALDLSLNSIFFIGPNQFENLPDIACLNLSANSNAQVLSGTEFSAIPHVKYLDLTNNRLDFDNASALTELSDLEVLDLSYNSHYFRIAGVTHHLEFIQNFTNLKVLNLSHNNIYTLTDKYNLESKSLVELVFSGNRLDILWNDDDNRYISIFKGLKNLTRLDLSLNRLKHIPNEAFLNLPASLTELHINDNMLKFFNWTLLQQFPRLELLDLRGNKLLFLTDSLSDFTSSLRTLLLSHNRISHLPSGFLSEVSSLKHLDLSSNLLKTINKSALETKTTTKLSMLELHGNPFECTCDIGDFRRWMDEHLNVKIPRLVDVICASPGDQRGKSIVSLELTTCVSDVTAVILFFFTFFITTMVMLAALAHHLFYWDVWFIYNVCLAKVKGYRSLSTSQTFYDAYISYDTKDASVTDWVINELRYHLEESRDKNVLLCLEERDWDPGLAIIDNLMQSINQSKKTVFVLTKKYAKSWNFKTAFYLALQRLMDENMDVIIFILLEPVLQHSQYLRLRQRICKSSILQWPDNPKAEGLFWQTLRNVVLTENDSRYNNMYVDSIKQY
Summary of the method: as §1

| IC50 [1] | EC50 [2] | EC50 [3] | SMILES |
| --- | --- | --- | --- |
| 1.57 µM | > 100 µM | > 100 µM | Nc1cc(NC2COC2)c2ccc(-c3ccn[nH]3)cc2n1 [Compound 280] |
| 1.98 µM | > 100 µM | > 100 µM | Nc1cc(N2CCCC(CO)C2)c2ccc(-c3ccn[nH]3)cc2n1 (stereo not drawn) [Compound 274] |
| 4.83 µM | > 100 µM | > 100 µM | Cc1ncsc1CCNc1cc(N)nc2cc(-c3ccn[nH]3)ccc12 [Compound 239] |
| 0.85 µM | > 100 µM | > 100 µM | Nc1cc(N[C@@H]2CCCOC2)c2ccc(-c3ccn[nH]3)cc2n1 [Compound 289] |
| 0.39 µM | > 100 µM | > 100 µM | Nc1cc(OCc2ccccn2)c2ccc(-c3ccn[nH]3)cc2n1 [Compound 189] |
| 3.04 µM | > 100 µM | > 100 µM | Nc1nc2cc(-c3ccn[nH]3)ccc2cc1CN1CCOCC1 [Compound 115] |
| 0.64 µM | > 100 µM | > 100 µM | CS(=O)(=O)CCNc1cc(N)nc2cc(-n3cccn3)ccc12 [Compound 305] |
| 0.09 µM | > 100 µM | > 100 µM | Cn1ccc(CNc2cc(N)nc3cc(-c4ccn[nH]4)ccc23)n1 [Compound 229] |
| 0.52 µM | > 100 µM | > 100 µM | Nc1cc(N[C@@H]2CCOC2)c2ccc(-c3ccn[nH]3)cc2n1 [Compound 276] |
| 0.38 µM | > 100 µM | > 100 µM | Nc1cc(NCCc2cccnc2)c2ccc(-c3ccn[nH]3)cc2n1 [Compound 284] |
| 0.7 µM | > 100 µM | > 100 µM | CC(C)(O)CNc1cc(N)nc2cc(-n3cccn3)ccc12 [Compound 176] |
| 0.22 µM | > 100 µM | > 100 µM | Nc1cc(N[C@H]2CCOC2)c2ccc(-c3ccn[nH]3)cc2n1 [Compound 277] |
| 0.33 µM | > 100 µM | > 100 µM | Nc1cc(N[C@@H]2CC[C@@H](O)C2)c2ccc(-c3ccn[nH]3)cc2n1 [Compound 248] |
| 1.7 µM | > 100 µM | > 100 µM | Nc1cc(N[C@H]2CC[C@@H](O)CC2)c2ccc(-c3ccn[nH]3)cc2n1 [Compound 283] |
| 2.29 µM | > 100 µM | > 100 µM | COc1cccc(C(C)Nc2cc(N)nc3cc(-c4ccn[nH]4)ccc23)n1 (stereo not drawn) [Compound 129, N4-(1-(6-methoxypyridin-2-yl)ethyl)-7-(1H-pyrazol-5-yl)quinoline-2,4-diamine] |
| 0.61 µM | > 100 µM | > 100 µM | Nc1cc(NCCc2cccs2)c2ccc(-c3cc[nH]n3)cc2n1 [Compound 322, 7-(1H-pyrazol-3-yl)-N4-(2-(thiophen-2-yl)ethyl)quinoline-2,4-diamine] |
| 0.23 µM | > 100 µM | > 100 µM | Nc1cc(N[C@H]2C[C@@H](O)C2)c2ccc(-c3ccn[nH]3)cc2n1 [Compound 234] |
| 0.19 µM | > 100 µM | > 100 µM | Cc1nc(C(=O)NCCNc2cc(N)nc3cc(-c4ccn[nH]4)ccc23)cs1 [Compound 203, N-(2-((2-amino-7-(1H-pyrazol-5-yl)quinolin-4-yl)amino)ethyl)-2-methylthiazole-4-carboxamide] |

| IC50 [1] | EC50 [2] | EC50 [3] | SMILES |
| --- | --- | --- | --- |
| 1.34 µM | > 100 µM | > 100 µM | Nc1cc(N[C@H]2CC[C@@H](O)C2)c2ccc(-c3ccn[nH]3)cc2n1 [Compound 245] |
| 1.67 µM | > 100 µM | > 100 µM | CCO[C@H]1COC[C@@H]1Nc1cc(N)nc2cc(-c3ccn[nH]3)ccc12 [Compound 291] |
| 0.37 µM | > 100 µM | > 100 µM | Nc1cc(N[C@@H]2CCCC[C@@H]2O)c2ccc(-c3ccn[nH]3)cc2n1 [Compound 251] |
| 5.82 µM | > 100 µM | > 100 µM | CCN(CC)CCNc1cc(N)nc2cc(-c3ccn[nH]3)ccc12 [Compound 170] |
| 0.54 µM | > 100 µM | > 100 µM | Nc1cc(NCc2ccccn2)c2ccc(-n3cccn3)cc2n1 [Compound 300] |
| 0.56 µM | > 100 µM | > 100 µM | Nc1cc(NCc2ncccn2)c2ccc(-c3ccn[nH]3)cc2n1 [Compound 316, 7-(1H-pyrazol-5-yl)-N4-(pyrimidin-2-ylmethyl)quinoline-2,4-diamine] |
| 0.33 µM | > 100 µM | > 100 µM | Nc1cc(NCc2nc[nH]n2)c2ccc(-c3ccn[nH]3)cc2n1 [Compound 227] |
| 8.33 µM | > 100 µM | > 100 µM | Nc1cc(-n2ccnc2)c2ccc(-c3ccn[nH]3)cc2n1 [Compound 167, 4-(1H-imidazol-1-yl)-7-(1H-pyrazol-5-yl)quinolin-2-amine] |
| 4.33 µM | > 100 µM | > 100 µM | CC(=O)NCCCCc1cc2ccc(-c3cc[nH]n3)cc2nc1N [Compound 109] |
| 1.14 µM | > 100 µM | > 100 µM | CCCOc1cc(N)nc2cc(-c3ccn[nH]3)ccc12 [Compound 182] |
| 0.64 µM | > 100 µM | > 100 µM | COc1cccc(CNc2cc(N)nc3cc(-c4ccn[nH]4)ccc23)c1 [Compound 259] |
| 9.17 µM | > 100 µM | > 100 µM | Nc1cc(OCCCC(F)(F)F)c2ccc(-c3ccsc3)cc2n1 [Compound 337] |
| 1.37 µM | > 100 µM | > 100 µM | Nc1cc(NCCO)c2ccc(-c3cc[nH]n3)cc2n1 [Compound 169] |
| 1.01 µM | > 100 µM | > 100 µM | CC(C)(O)CCNc1cc(N)nc2cc(-n3cccn3)ccc12 [Compound 301] |
| 1.89 µM | > 100 µM | > 100 µM | Nc1cc(OC(CO)CO)c2ccc(-c3ccn[nH]3)cc2n1 [Compound 202, 2-((2-amino-7-(1H-pyrazol-5-yl)quinolin-4-yl)oxy)propane-1,3-diol] |
| 1.69 µM | > 100 µM | > 100 µM | Cn1cncc1CNc1cc(N)nc2cc(-c3ccn[nH]3)ccc12 [Compound 252] |
| 1.59 µM | > 100 µM | > 100 µM | Cn1ncnc1COc1cc(N)nc2cc(-c3ccn[nH]3)ccc12 [Compound 312] |
